Data from ChEMBL document CHEMBL5584334, “Discovery of a Covalent Inhibitor of Pro-Caspase-1 Zymogen Blocking NLRP3 Inflammasome Activation and Pyroptosis” (J Med Chem, 2024).
Calls of active or inactive are those of the source. No cut-off for these calls is given here.

Legend:
[1] = test system: HEK293T; test: Inhibition of recombinant caspae-1 C169A mutant (unknown origin) to GSDMD (unknown origin) interaction expressed in HEK293T cells; type: cell-based; settings: Homo sapiens
[2] = test system: J774.A1; test: Inhibition of pyroptosis in mouse J774.A1 cells assessed as reduction in cleaved GSDMD expression at 0.5 to 2 uM pretreated with LPS for 3 hrs followed by compound addition in presence of nigericin by Western blotting analysis; type: functional, cell-based; settings: dose 0.5-2 µM
[3] = Acute toxicity in Kunming mouse assessed as heart damage at 100 mg/kg, ip administered for 14 days; type: organism-based; settings: in vivo, 336 h, time 14 day
[4] = target: NACHT, LRR and PYD domains-containing protein 3 (Mus musculus) (UniProt Q8R4B8); test: Inhibition of NLRP3 inflammasome activation in LPS primed Casp1 knockout mouse BMDM cells transfected with caspase-1 C285A mutant assessed as reduction in IL-1beta release at 2 uM preincubated for 30 mins followed by nigericin stimulation; type: cell-based
[5] = target: NACHT, LRR and PYD domains-containing protein 3 (Mus musculus) (UniProt Q8R4B8); test: Inhibition of NLRP3 inflammasome activation in LPS primed Casp1 knockout mouse BMDM cells transfected with caspase-1 C285A/C397A double mutant assessed as reduction in IL-1beta release at 2 uM preincubated for 30 mins followed by nigericin stimulation; type: cell-based
[6] = target: Interferon-inducible protein AIM2 (Mus musculus) (UniProt Q91VJ1); test: Inhibition of AIM2 inflammasome activation in mouse BMDMs assessed as reduction in caspase-1 activation at 0.5 to 2 uM primed with LPS for 3 hrs followed by incubation with compound for 30 mins and later stimulated with poly (dA:dT) for 16 hrs; type: cell-based; settings: BMDM, dose 0.5-2 µM, time 16.5 hrs
[7] = target: NACHT, LRR and PYD domains-containing protein 3 (Mus musculus) (UniProt Q8R4B8); test: Inhibition of NLRP3 inflammasome activation in LPS/MSU stimulated mouse J774.A1 cells assessed as reduction in IL-18 production incubated for 4 hrs by ELISA; type: cell-based
[8] = target: T1, Caspase-1 (Homo sapiens) (UniProt P29466); test: Inhibition of recombinant human caspase-1 expressed in Escherichia coli BL21 cells assessed as remaining activity at 10 uM using […] as substrate incubated for 30 mins relative to control
T1 sequence (whole entry): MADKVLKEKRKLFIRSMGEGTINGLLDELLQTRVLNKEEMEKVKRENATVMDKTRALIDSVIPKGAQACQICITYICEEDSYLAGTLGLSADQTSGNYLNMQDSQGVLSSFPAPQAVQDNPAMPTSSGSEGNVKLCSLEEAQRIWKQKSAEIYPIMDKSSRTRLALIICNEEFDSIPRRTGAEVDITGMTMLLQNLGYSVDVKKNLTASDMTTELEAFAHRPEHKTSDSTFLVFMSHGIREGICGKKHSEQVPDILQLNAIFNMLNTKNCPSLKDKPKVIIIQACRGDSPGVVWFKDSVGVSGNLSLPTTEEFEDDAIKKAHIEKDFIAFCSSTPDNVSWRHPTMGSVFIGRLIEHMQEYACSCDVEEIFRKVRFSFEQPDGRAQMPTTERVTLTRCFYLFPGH

[9] = test system: HEK293T; test: Inhibition of recombinant wild type caspae-1 (unknown origin) to GSDMD (unknown origin) interaction expressed in HEK293T cells; type: cell-based; settings: Homo sapiens
[10] = test system: THP-1; test: Effect on cleaved caspase-4 expression in human THP-1 cells at 2 uM pretreated with pam3CSK4 for 3 hrs followed by compound addition for 30 mins prior to cytosolic LPS stimulation for 16 hrs by ELISA; type: functional, cell-based; settings: time 16.5 hrs
[11] = test system: THP-1; test: Effect on cleaved caspase-5 expression in human THP-1 cells at 2 uM pretreated with pam3CSK4 for 3 hrs followed by compound addition for 30 mins prior to cytosolic LPS stimulation for 16 hrs by ELISA; type: functional, cell-based; settings: time 16.5 hrs
[12] = test system: Mus musculus; test: Anti-inflammatory activity in LPS/MSU-induced Casp1 knockout C57BL/6 mouse model of acute peritonitis assessed as reduction in IL-1beta expression at 20 mg/kg, ip preadministered intraperitoneally with compound for 30 mins followed by MSU injection and measured after 6 hrs by ELISA; type: functional, organism-based
[13] = test system: J774.A1; test: Inhibition of NF-kappaB signaling in LPS-stimulated mouse J774.A1 cells at 1 uM preincubated for 30 mins followed by LPS addition and measured after 2 hrs by Western blotting analysis; type: cell-based; settings: time 2.5 hrs
[14] = target: T1, Caspase-1 (Homo sapiens); test: Inhibition of recombinant human caspase-1 expressed in Escherichia coli BL21 cells at 5 to 50 uM using […] as substrate incubated for 30 mins; settings: dose 5-50 µM
[15] = test system: HEK293T; test: Inhibition of recombinant caspae-1 C270A mutant (unknown origin) to GSDMD (unknown origin) interaction expressed in HEK293T cells; type: cell-based; settings: Homo sapiens
[16] = test system: J774.A1; test: Inhibition of ASC colocalization in LPS/nigericin stimulated mouse J774.A1 cells; type: functional, cell-based
[17] = test system: J774.A1; test: Binding affinity to pro-caspase 1 in mouse J774.A1 cells assessed as increase in protein stability incubated for 30 mins by CETSA; type: cell-based; settings: dose 1-100 µM
[18] = target: NACHT, LRR and PYD domains-containing protein 3 (Mus musculus) (UniProt Q8R4B8); test: Inhibition of NLRP3 inflammasome activation in LPS primed Casp1 knockout mouse BMDM cells transfected with caspase-1 C397A mutant assessed as reduction in IL-1beta release at 2 uM preincubated for 30 mins followed by nigericin stimulation; type: cell-based
[19] = Tmax in rat at 25 mg/kg, po; type: ADME, organism-based; settings: in vivo
[20] = test system: THP-1; test: Effect on pro-caspase 1 protein expression in LPS/nigericin stimulated human THP-1 cells supernatant at 0.5 to 2 uM by Western blotting analysis; type: functional, cell-based; settings: dose 0.5-2 µM
[21] = test system: THP-1; test: Inhibition of p20 fragment of IL-1beta protein expression in LPS/ATP stimulated human THP-1 cells supernatant by Western blotting analysis; type: functional, cell-based
[22] = Tmax in rat at 10 mg/kg, iv; type: ADME, organism-based; settings: in vivo
[23] = target: T1, Caspase-1 (Homo sapiens); test: Inhibition of recombinant human caspase-1 expressed in Escherichia coli BL21 cells assessed as remaining activity at 100 uM using […] as substrate incubated for 30 mins relative to control
[24] = test system: Caspase-1 (Homo sapiens), P29466 [C397A]; test: Binding affinity to Flag-tagged caspase-1 C397A mutant (unknown origin) expressed in HEK293T cells by pull-down assay; type: cell-based
[25] = test system: J774.A1; test: Inhibition of pro-caspase 1 to RIP2 interaction in LPS stimulated mouse J774.A1 cells at 1 uM by immunoprecipitation method; type: cell-based
[26] = test system: J774.A1; test: Inhibition of NLRP3 colocalization in LPS/nigericin stimulated mouse J774.A1 cells by fluorescent staining based assay; type: functional, cell-based
[27] = target: NACHT, LRR and PYD domains-containing protein 3 (Mus musculus) (UniProt Q8R4B8); test: Inhibition of NLRP3 inflammasome activation activation in LPS/nigericin stimulated mouse J774.A1 cells assessed as reduction in IL-1beta production pretreated with LPS for 3 hrs prior to compound addition for 30 mins followed by nigericin addition and measured after 45 mins by ELISA; type: cell-based; settings: dose 0.001-2000 nM, time 75.0 min
[28] = test system: Mus musculus; test: Anti-inflammatory activity in LPS/MSU-induced C57BL/6 mouse model of acute peritonitis assessed as reduction in IL-1beta expression at 20 mg/kg, ip preadministered intraperitoneally with compound for 30 mins followed by MSU injection and measured after 6 hrs by ELISA; type: functional, organism-based; settings: time 6.5 hrs

Chain of NACHT, LRR and PYD domains-containing protein 3 (Mus musculus) (Q8R4B8 whole entry, the tested form may be a part): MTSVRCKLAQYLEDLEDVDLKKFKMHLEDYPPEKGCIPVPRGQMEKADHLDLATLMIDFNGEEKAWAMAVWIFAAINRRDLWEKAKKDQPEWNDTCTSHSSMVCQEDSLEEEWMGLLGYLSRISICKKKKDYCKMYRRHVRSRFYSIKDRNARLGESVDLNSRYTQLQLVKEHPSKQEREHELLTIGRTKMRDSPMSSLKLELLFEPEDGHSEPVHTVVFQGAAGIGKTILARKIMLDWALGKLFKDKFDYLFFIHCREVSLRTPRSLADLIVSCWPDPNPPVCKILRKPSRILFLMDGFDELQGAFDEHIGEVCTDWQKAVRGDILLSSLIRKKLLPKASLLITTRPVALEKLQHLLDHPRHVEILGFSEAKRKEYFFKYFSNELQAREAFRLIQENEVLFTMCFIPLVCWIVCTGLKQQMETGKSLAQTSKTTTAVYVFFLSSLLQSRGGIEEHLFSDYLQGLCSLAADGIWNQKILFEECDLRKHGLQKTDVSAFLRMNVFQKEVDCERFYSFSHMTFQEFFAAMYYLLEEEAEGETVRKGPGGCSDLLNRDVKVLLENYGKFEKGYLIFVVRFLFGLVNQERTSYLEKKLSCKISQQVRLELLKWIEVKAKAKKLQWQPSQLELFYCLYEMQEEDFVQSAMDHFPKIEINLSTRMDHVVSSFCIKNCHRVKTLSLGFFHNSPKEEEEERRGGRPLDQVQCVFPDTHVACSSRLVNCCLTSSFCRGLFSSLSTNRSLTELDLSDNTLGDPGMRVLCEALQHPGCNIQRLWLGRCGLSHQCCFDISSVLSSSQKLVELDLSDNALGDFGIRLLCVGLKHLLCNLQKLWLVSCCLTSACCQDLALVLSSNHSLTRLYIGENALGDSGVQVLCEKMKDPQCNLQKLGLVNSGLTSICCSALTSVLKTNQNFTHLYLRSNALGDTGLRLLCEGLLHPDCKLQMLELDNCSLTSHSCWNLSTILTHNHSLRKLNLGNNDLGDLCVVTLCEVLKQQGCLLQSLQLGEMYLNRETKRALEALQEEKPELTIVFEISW
Chain of Caspase-1 (Homo sapiens), P29466 [C397A] (P29466 whole entry C397A): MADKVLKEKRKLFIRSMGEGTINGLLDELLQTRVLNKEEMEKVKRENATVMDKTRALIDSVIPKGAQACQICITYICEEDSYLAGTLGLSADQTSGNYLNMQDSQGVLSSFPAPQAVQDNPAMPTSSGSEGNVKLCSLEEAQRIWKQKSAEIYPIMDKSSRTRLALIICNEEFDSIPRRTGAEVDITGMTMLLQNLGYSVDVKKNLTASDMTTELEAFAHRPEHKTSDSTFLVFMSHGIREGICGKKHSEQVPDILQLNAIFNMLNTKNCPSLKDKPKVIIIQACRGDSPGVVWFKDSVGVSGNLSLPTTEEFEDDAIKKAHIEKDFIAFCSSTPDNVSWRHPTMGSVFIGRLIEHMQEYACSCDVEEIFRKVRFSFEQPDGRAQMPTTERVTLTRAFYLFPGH
Chain of Interferon-inducible protein AIM2 (Mus musculus) (Q91VJ1 whole entry, the tested form may be a part): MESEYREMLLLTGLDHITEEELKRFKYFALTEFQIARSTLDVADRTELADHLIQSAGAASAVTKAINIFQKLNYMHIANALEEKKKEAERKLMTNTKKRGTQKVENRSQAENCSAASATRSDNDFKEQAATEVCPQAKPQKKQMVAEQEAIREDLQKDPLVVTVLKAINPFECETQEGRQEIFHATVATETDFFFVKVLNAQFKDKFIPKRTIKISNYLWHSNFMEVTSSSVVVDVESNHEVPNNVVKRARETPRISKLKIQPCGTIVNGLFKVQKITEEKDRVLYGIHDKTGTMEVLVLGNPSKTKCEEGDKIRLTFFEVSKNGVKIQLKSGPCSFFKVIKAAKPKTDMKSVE

## COc1ccc2c(c1)[C@]1(C=C[C@H](N=C=S)C[C@H]1C(=O)OC(C)(C)C)C(=O)N2C(=O)OCc1ccccc1
[1]
  inhibition: Active
[2]
  inhibition: Active
[3]
  Activity: Non-Toxic
[4]
  inhibition: inactive
[5]
  inhibition: inactive
[6]
  inhibition: Active
[7]
  inhibition: Active
[8]
  Activity: 31%
[9]
  inhibition: Active
[10]
  Activity: inactive
[11]
  Activity: inactive
[12]
  Activity: inactive
[13]
  inhibition: Active
[14]
  inhibition (active/not active): Active
[15]
  inhibition: Active
[16]
  inhibition: Active
[17]
  Activity: Dose-Dependent Effect
[18]
  inhibition: inactive
[19]
  Tmax: 90 min
[20]
  Activity: inactive
[21]
  inhibition: Active
[22]
  Tmax: 4.98 min
[23]
  Activity: 16%
[24]
  Activity: inactive
[25]
  inhibition: Active
[26]
  inhibition: Active
[27]
  inhibition: Dose-Dependent Effect
[28]
  Activity: Active
